Data from the supplement of paper PMC8967900.

What was measured:
Test in all cases: selective drug sensitivity score (sDSS, relative to normal bone marrow) (sDSS (score)); higher = more potent and effective on the cell line relative to normal bone marrow cells
Conditions in all cases: 72 h
MHH-CALL-2 = test system: MHH-CALL-2
RPMI-8402 = test system: RPMI-8402
NALM-6 = test system: NALM-6
MN-60 = test system: MN-60
MHH-CALL-4 = test system: MHH-CALL-4
KASUMI-9 = test system: KASUMI-9
PEER = test system: PEER
REH = test system: REH
KARPAS-45 = test system: KARPAS-45
380 = test system: 380
PF-382 = test system: PF-382
MHH-CALL-3 = test system: MHH-CALL-3
NALM-16 = test system: NALM-16
JURKAT = test system: JURKAT
KASUMI-10 = test system: KASUMI-10
COG-LL-319h = test system: COG-LL-319h
TMD5 = test system: TMD5
COG-LL-355h = test system: COG-LL-355h
ALL-SIL = test system: ALL-SIL
NALL-1 = test system: NALL-1
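Note: ALL cell lines in 384-well plates, five doses spanning 10,000-fold, each plate scaled between vehicle and 100 µmol/L benzalkonium chloride controls, sDSS an adapted area-under-curve metric.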

SMILES	selective drug sensitivity score (MHH-CALL-2)	selective drug sensitivity score (RPMI-8402)	selective drug sensitivity score (NALM-6)	selective drug sensitivity score (MN-60)	selective drug sensitivity score (MHH-CALL-4)	selective drug sensitivity score (KASUMI-9)	selective drug sensitivity score (PEER)	selective drug sensitivity score (REH)	selective drug sensitivity score (KARPAS-45)	selective drug sensitivity score 380	selective drug sensitivity score (PF-382)	selective drug sensitivity score (MHH-CALL-3)	selective drug sensitivity score (NALM-16)	selective drug sensitivity score (JURKAT)	selective drug sensitivity score (KASUMI-10)	selective drug sensitivity score (COG-LL-319h)	selective drug sensitivity score (TMD5)	selective drug sensitivity score (COG-LL-355h)	selective drug sensitivity score (ALL-SIL)	selective drug sensitivity score (NALL-1)
C=C1C[C@@H]2CC[C@@]34C[C@H]5O[C@H]6[C@@H](O3)[C@H]3O[C@H](CC[C@@H]3O[C@H]6[C@H]5O4)CC(=O)C[C@@H]3[C@@H](OC)[C@@H](C[C@H](O)CN)O[C@H]3C[C@H]3O[C@@H](CC[C@@H]1O2)C[C@@H](C)C3=C [Eribulin] (top concentration 1000 nM)	15.8	22.1	16	3.8	5.6	24	23.6	18.9	21.7	24.2	15.1	13.1	17.1	26.9	20.2	14.8	12.5	4.4	23.2	15.8
O=c1[nH]cc(F)c(=O)[nH]1 [Fluorouracil] (top concentration 10000 nM)	-0.04	2.66	1.86	-0.64	-0.14	3.26	-0.64	1.76	0.46	1.86	-0.64	-0.24	-0.24	0.16	2.96	6.56	-0.64	1.76	-0.64	-0.24
CC(C)C(=O)Nc1ccc([N+](=O)[O-])c(C(F)(F)F)c1 [Flutamide] (top concentration 10000 nM)	9.74	0.74	-0.46	-0.56	1.24	1.64	0.94	-0.56	0.74	-0.56	0.14	-0.56	-0.56	1.84	-0.56	-0.56	6.64	-0.56	-0.26	8.04
C[C@]12CC[C@@H]3c4ccc(O)cc4C[C@@H](CCCCCCCCC[S+]([O-])CCCC(F)(F)C(F)(F)F)[C@H]3[C@@H]1CC[C@@H]2O (stereo not given in full) [Fulvestrant] (top concentration 1000 nM)	1.5	0	0	0	0	0	0	0.2	0	0	0	0	0	0	0	0	2.3	1.3	5.3	1.6
CCCOc1ccn2c(C(C)=O)cc(-c3ccccc3S(C)(=O)=O)c2c1 [GSK2801] (top concentration 10000 nM)	-0.16	-0.16	-0.36	-0.36	-0.36	-0.36	0.34	-0.36	0.44	3.44	0.54	-0.36	-0.36	-0.26	-0.36	4.44	-0.36	-0.36	-0.36	-0.36
Cc1cccc(-c2nn3c(c2-c2ccnc4ccc(C(N)=O)cc24)CCC3)n1 [Galunisertib] (top concentration 1000 nM)	8.5	0	0	0	0	1.3	0	0	0	0	0	0	0	0	0	0	0	0	0	0
O=C(O)CNC(=O)c1c(O)c2ccccc2n(Cc2ccccc2)c1=O [IOX-2] (top concentration 50000 nM)	1.78	-0.82	-0.32	-0.42	-0.82	-0.42	-0.82	-0.82	-0.82	8.98	-0.82	0.88	-0.62	-0.82	-0.82	4.18	-0.82	-0.82	-0.82	-0.82
C#Cc1cccc(Nc2ncnc3cc4c(cc23)OCCOCCOCCO4)c1 [Icotinib] (top concentration 10000 nM)	4.8	2.3	0	0.6	0	4.9	0.7	0	1.4	3.6	0.5	1.3	0	0	0	1.8	7.5	0.1	0.8	6.5
CC(C)Cn1cnc2c(N)nc3ccccc3c21 [Imiquimod] (top concentration 2500 nM)	1.7	0	0.4	0	0.9	0.9	0	5.1	0	9	0	0	0	0	0	0	4.4	0.6	0	0
